Assay results reported in patent US11654136B2, “Phosphoinositide 3-kinase inhibitor with a zinc binding moiety” (Curis, Inc., priority 2011, dated 2023).

How the values were obtained:
Type in all cases: cell-based
MDA-MB-361 = assay: Cell proliferation assay MDA-MB-361; details: Homo sapiens, Breast, 72 hours, read-out: IC50 antiproliferative activity
Protocol: (§1) Growth inhibition was accessed by adenosine triphosphate (ATP) content assay using Promega CellTiter-Glo kit. Promega CellTiter-Glo kit is an ATP monitoring system based on firefly luciferase. Briefly, 16 μl of mammalian cell lysis and substrate solution was added to 84 µl of culture medium per well to lyse the cells and stabilize the ATP. The mixture was shaken and incubated for 30 minutes and subsequently the luminescence was measured. IC50 values were calculated using PRISM software (GraphPad Software) with sigmoidal dose-response curve fitting.

SWI-116 = assay: Cell proliferation assay SWI-116; details: Homo sapiens, Colon, 72 hours, read-out: IC50 antiproliferative activity
Protocol: as §1

Su-DHL4 = assay: Cell proliferation assay Su-DHL4; details: Homo sapiens, SU-DHL-4, B-Cell Lymphoma, 72 hours, read-out: IC50 antiproliferative activity
Protocol: as §1

MiaPaca2 = assay: Cell proliferation assay MiaPaca2; details: Homo sapiens, MIA PaCa-2, Pancreas, 72 hours, read-out: IC50 antiproliferative activity
Protocol: as §1

HH = assay: Cell proliferation assay HH; details: Homo sapiens, T-Cell Lymphoma, 72 hours, read-out: IC50 antiproliferative activity
Protocol: as §1

Pfeiffer = assay: Cell proliferation assay Pfeiffer; details: Homo sapiens, B-Cell Lymphoma, 72 hours, read-out: IC50 antiproliferative activity
Protocol: as §1

MDA-MB-453 = assay: Cell proliferation assay MDA-MB-453; details: Homo sapiens, Breast, 72 hours, read-out: IC50 antiproliferative activity
Protocol: as §1

MOLT-4 = assay: Cell proliferation assay MOLT-4; details: Homo sapiens, ALL, 72 hours, read-out: IC50 antiproliferative activity
Protocol: as §1

ZR-75-1 = assay: Cell proliferation assay ZR-75-1; details: Homo sapiens, Breast, 72 hours, read-out: IC50 antiproliferative activity
Protocol: as §1

HL-60 = assay: Cell proliferation assay HL-60; details: Homo sapiens, AML, 72 hours, read-out: IC50 antiproliferative activity
Protocol: as §1

MV-4-11 = assay: Cell proliferation assay MV-4-11; details: Homo sapiens, MV4-11, AML, 72 hours, read-out: IC50 antiproliferative activity
Protocol: as §1

PANC-1 = assay: Cell proliferation assay PANC-1; details: Homo sapiens, Pancreas, 72 hours, read-out: IC50 antiproliferative activity
Protocol: as §1

UACC-893 = assay: Cell proliferation assay UACC-893; details: Homo sapiens, Breast, 72 hours, read-out: IC50 antiproliferative activity
Protocol: as §1

HCT116 = assay: Cell proliferation assay HCT116; details: Homo sapiens, HCT-116, Colon, 72 hours, read-out: IC50 antiproliferative activity
Protocol: as §1

HuT78 = assay: Cell proliferation assay HuT78; details: Homo sapiens, T-Cell Lymphoma, 72 hours, read-out: IC50 antiproliferative activity
Protocol: as §1

DOHH2 = assay: Cell proliferation assay DOHH2; details: Homo sapiens, DOHH-2, B-Cell Lymphoma, 72 hours, read-out: IC50 antiproliferative activity
Protocol: as §1

SW1990 = assay: Cell proliferation assay SW1990; details: Homo sapiens, Pancreas, 72 hours, read-out: IC50 antiproliferative activity
Protocol: as §1

BT474 = assay: Cell proliferation assay BT474; details: Homo sapiens, BT-474, Breast, 72 hours, read-out: IC50 antiproliferative activity
Protocol: as §1

U937 = assay: Cell proliferation assay U937; details: Homo sapiens, U-937, AML, 72 hours, read-out: IC50 antiproliferative activity
Protocol: as §1

MDA-MB-231 = assay: Cell proliferation assay MDA-MB-231; details: Homo sapiens, Breast, 72 hours, read-out: IC50 antiproliferative activity
Protocol: as §1

Calu6 = assay: Cell proliferation assay Calu6; details: Homo sapiens, Calu-6, NSCLC, 72 hours, read-out: IC50 antiproliferative activity
Protocol: as §1

SUP-B15 = assay: Cell proliferation assay SUP-B15; details: Homo sapiens, ALL, 72 hours, read-out: IC50 antiproliferative activity
Protocol: as §1

K562 = assay: Cell proliferation assay K562; details: Homo sapiens, CML, 72 hours, read-out: IC50 antiproliferative activity
Protocol: as §1

Granta 519 = assay: Cell proliferation assay Granta 519; details: Homo sapiens, B-Cell Lymphoma, 72 hours, read-out: IC50 antiproliferative activity
Protocol: as §1

Daudi = assay: Cell proliferation assay Daudi; details: Homo sapiens, B-Cell Lymphoma, 72 hours, read-out: IC50 antiproliferative activity
Protocol: as §1

MJ = assay: Cell proliferation assay MJ; details: Homo sapiens, T-Cell Lymphoma, 72 hours, read-out: IC50 antiproliferative activity
Protocol: as §1

SW403 = assay: Cell proliferation assay SW403; details: Homo sapiens, SW-403, Colon, 72 hours, read-out: IC50 antiproliferative activity
Protocol: as §1

WiDr = assay: Cell proliferation assay WiDr; details: Homo sapiens, Colon, 72 hours, read-out: IC50 antiproliferative activity
Protocol: as §1

Raji = assay: Cell proliferation assay Raji; details: Homo sapiens, B-Cell Lymphoma, 72 hours, read-out: IC50 antiproliferative activity
Protocol: as §1

H358 = assay: Cell proliferation assay H358; details: Homo sapiens, NCI-H358, NSCLC, 72 hours, read-out: IC50 antiproliferative activity
Protocol: as §1

MEG-01 = assay: Cell proliferation assay MEG-01; details: Homo sapiens, CML, 72 hours, read-out: IC50 antiproliferative activity
Protocol: as §1

RL = assay: Cell proliferation assay RL; details: Homo sapiens, B-Cell Lymphoma, 72 hours, read-out: IC50 antiproliferative activity
Protocol: as §1

CaPan2 = assay: Cell proliferation assay CaPan2; details: Homo sapiens, Capan-2, Pancreas, 72 hours, read-out: IC50 antiproliferative activity
Protocol: as §1

T47D = assay: Cell proliferation assay T47D; details: Homo sapiens, Breast, 72 hours, read-out: IC50 antiproliferative activity
Protocol: as §1

H292 = assay: Cell proliferation assay H292; details: Homo sapiens, NCI-H292, NSCLC, 72 hours, read-out: IC50 antiproliferative activity
Protocol: as §1

THP-1 = assay: Cell proliferation assay THP-1; details: Homo sapiens, AML, 72 hours, read-out: IC50 antiproliferative activity
Protocol: as §1

SKBr3 = assay: Cell proliferation assay SKBr3; details: Homo sapiens, SK-BR-3, Breast, 72 hours, read-out: IC50 antiproliferative activity
Protocol: as §1

OPM-2 = assay: Cell proliferation assay OPM-2; details: Homo sapiens, Multiple Myeloma, 72 hours, read-out: IC50 antiproliferative activity
Protocol: as §1

A549 = assay: Cell proliferation assay A549; details: Homo sapiens, NSCLC, 72 hours, read-out: IC50 antiproliferative activity
Protocol: as §1

SMILES	IC50 (MDA-MB-361)	IC50 (SWI-116)	IC50 (Su-DHL4)	IC50 (MiaPaca2)	IC50 (HH)	IC50 (Pfeiffer)	IC50 (MDA-MB-453)	IC50 (MOLT-4)	IC50 (ZR-75-1)	IC50 (HL-60)	IC50 (MV-4-11)	IC50 (PANC-1)	IC50 (UACC-893)	IC50 (HCT116)	IC50 (HuT78)	IC50 (DOHH2)	IC50 (SW1990)	IC50 (BT474)	IC50 (U937)	IC50 (MDA-MB-231)	other results
COc1ccc(-c2nc(N3CCOCC3)c3sc(CN(C)c4ncc(C(=O)NO)cn4)cc3n2)cn1 [Compound 1, N-hydroxy-2-(((2-(6-methoxypyridin-3-yl)-4-morpholinothieno[3,2-d]pyrimidin-6-yl)methyl)(methyl)amino)pyrimidine-5-carboxamide]	< 10 nM	< 10 nM	< 10 nM	10 to 100 nM	< 10 nM	< 10 nM	< 10 nM	< 10 nM	10 to 100 nM	< 10 nM	< 10 nM	10 to 100 nM	10 to 100 nM	< 10 nM	< 10 nM	< 10 nM	< 10 nM	< 10 nM	< 10 nM	10 to 100 nM	IC50 (Calu6): 10 to 100 nM; IC50 (SUP-B15): < 10 nM; IC50 (K562): 10 to 100 nM; IC50 (Granta 519): < 10 nM; IC50 (Daudi): 10 to 100 nM; IC50 (MJ): < 10 nM; IC50 (SW403): < 10 nM; IC50 (WiDr): 10 to 100 nM; IC50 (Raji): 10 to 100 nM; IC50 (H358): < 10 nM; IC50 (MEG-01): < 10 nM; IC50 (RL): < 10 nM; IC50 (CaPan2): 10 to 100 nM; IC50 (T47D): 10 to 100 nM; IC50 (H292): < 10 nM; IC50 (THP-1): 10 to 100 nM; IC50 (SKBr3): 10 to 100 nM; IC50 (OPM-2): < 10 nM; IC50 (A549): 10 to 100 nM
CS(=O)(=O)N1CCN(Cc2cc3nc(-c4cccc5[nH]ncc45)nc(N4CCOCC4)c3s2)CC1 [GDC-0941, reference compound]	100 to 1000 nM	> 10000 nM	100 to 1000 nM	> 10000 nM	100 to 1000 nM	100 to 1000 nM	100 to 1000 nM	100 to 1000 nM	100 to 1000 nM	100 to 1000 nM	1000 to 10000 nM	1000 to 10000 nM	1000 to 10000 nM	1000 to 10000 nM	100 to 1000 nM	10 to 100 nM	> 10000 nM	100 to 1000 nM	1000 to 10000 nM	> 10000 nM	IC50 (Calu6): > 10000 nM; IC50 (SUP-B15): 1000 to 10000 nM; IC50 (K562): 1000 to 10000 nM; IC50 (Granta 519): > 10000 nM; IC50 (Daudi): > 10000 nM; IC50 (MJ): > 10000 nM; IC50 (SW403): > 10000 nM; IC50 (WiDr): > 10000 nM; IC50 (Raji): > 10000 nM; IC50 (H358): 1000 to 10000 nM; IC50 (MEG-01): > 10000 nM; IC50 (RL): 1000 to 10000 nM; IC50 (CaPan2): > 10000 nM; IC50 (T47D): > 10000 nM; IC50 (H292): 1000 to 10000 nM; IC50 (THP-1): 1000 to 10000 nM; IC50 (SKBr3): > 10000 nM; IC50 (OPM-2): 10 to 100 nM; IC50 (A549): 1000 to 10000 nM
